18 compounds from patent publication US20240101521A1, “DIAMINOTRIAZINE COMPOUNDS” (BASF SE, priority 2021, published 2024) can be followed below.

What all share (test): greenhouse pre-emergence herbicidal test
What all share (type): in vivo

In one assay the test system is Echinochloa crus-galli. The conditions noted are these: scale 0 to 100. The text has this:
(§1) The culture containers used were plastic flowerpots containing loamy sand with approximately 3.0% of humus as the substrate. The seeds of the test plants were sown separately for each species.
(§2) For the pre-emergence treatment, the active ingredients, which had been suspended or emulsified in water, were applied directly after sowing by means of finely distributing nozzles. The containers were irrigated gently to promote germination and growth and subsequently covered with transparent plastic hoods until the plants had rooted. This cover caused uniform germination of the test plants, unless this had been impaired by the active ingredients. For the post-emergence treatment, the test plants were first grown to a height of 3 to 15 cm, depending on the plant habit, and only then treated with the active ingredients which had been suspended or emulsified in water. For this purpose, the test plants were either sown directly and grown in the same containers, or they were first grown separately as seedlings and transplanted into the test containers a few days prior to treatment.
(§3) Depending on the species, the plants were kept at 10-25° C. or 20-35° C., respectively.
(§4) The test period extended over 2 to 4 weeks. During this time, the plants were tended, and their response to the individual treatments was evaluated.
(§5) Evaluation was carried out using a scale from 0 to 100. 100 means no emergence of the plants, or complete destruction of at least the aerial moieties, and 0 means no damage, or normal course of growth. A moderate herbicidal activity is given at values of at least 60, a good herbicidal activity is given at values of at least 70, and a very good herbicidal activity is given at values of at least 85.
(§6) The plants used in the greenhouse experiments were of the following species: […]

The subject of the next assay is Alopecurus myosuroides. The conditions noted are these: scale 0 to 100.
From the text: as §1, §2, §3, §4, §5, §6

The next assay has as its system Setaria faberi. The conditions noted are these: scale 0 to 100.
From the text: as §1, §2, §3, §4, §5, §6

The next assay concerns Amaranthus retroflexus. The conditions noted are these: scale 0 to 100.
From the text: as §1, §2, §3, §4, §5, §6

Another assay relates to Abutilon theophrasti. The conditions noted are these: scale 0 to 100.
From the text: as §1, §2, §3, §4, §5, §6

The next assay relates to Lolium multiflorum. The conditions noted are these: pre-emergence, 62,5 g/ha, scale 0 to 100.
From the text: as §1, §2, §3, §4, §5, §6

With `CC(C)(F)c1nc(N)nc(Nc2c(F)ccc(Br)c2OC2CC2)n1` [Example 13], the herbicidal activity with Echinochloa crus-galli (pre-emergence, 62,5 g/ha) worked out at 100%; in the assay with Alopecurus myosuroides (pre-emergence, 62,5 g/ha), 100%; in the assay on Setaria faberi (pre-emergence, 62,5 g/ha), 100%.
For `C#CC(C)(F)c1nc(N)nc(Nc2c(F)c(F)cc(Br)c2OC)n1` (stereo not drawn) [Example 115], the herbicidal activity is 100% in the assay with Amaranthus retroflexus (pre-emergence, 62,5 g/ha); 90% in the assay on Abutilon theophrasti (pre-emergence, 62,5 g/ha); 98% in the assay on Alopecurus myosuroides (pre-emergence, 62,5 g/ha).
Turning to `CC(C)(F)c1nc(N)nc(Nc2c(F)c(F)cc(Br)c2OC/C=C/Cl)n1` [Example 124], the herbicidal activity with Amaranthus retroflexus (pre-emergence, 62,5 g/ha) worked out at 100%; in the assay on Lolium multiflorum, 80%; with Setaria faberi (pre-emergence, 62,5 g/ha), 100%.
With `CC#CC(C)Oc1c(Cl)cc(F)c(F)c1Nc1nc(N)nc(C(C)(C)F)n1` (stereo not drawn) [Example 98], the herbicidal activity with Amaranthus retroflexus (pre-emergence, 62 g/ha) is given as 100%; in the assay on Alopecurus myosuroides (pre-emergence, 62 g/ha), 100%; in the assay on Setaria faberi (pre-emergence, 62 g/ha), 100%.
Consider `COc1c(Cl)cc(F)c(F)c1Nc1nc(N)nc(C(C)(F)CCl)n1` (stereo not drawn) [Example 34], for which the herbicidal activity is on record as 100% in the assay on Amaranthus retroflexus (pre-emergence, 62,5 g/ha); 100% with Echinochloa crus-galli (pre-emergence, 62,5 g/ha); 100% in the assay on Abutilon theophrasti (pre-emergence, 62,5 g/ha).
Turning to `CCOc1c(Br)cc(F)c(F)c1Nc1nc(N)nc(C(C)(C)F)n1` [Example 19], the herbicidal activity in the assay with Amaranthus retroflexus (pre-emergence, 62,5 g/ha) is 100%; in the assay with Echinochloa crus-galli (pre-emergence, 62,5 g/ha) it was 100%; with Abutilon theophrasti (pre-emergence, 62,5 g/ha), 100%.
For `COc1c(Cl)cc(Cl)c(F)c1Nc1nc(N)nc(C(C)F)n1` (stereo not drawn) [Example 63], the herbicidal activity is 80% with Amaranthus retroflexus (pre-emergence, 31 g/ha); 80% in the assay with Alopecurus myosuroides (pre-emergence, 31 g/ha); 100% in the assay on Setaria faberi (pre-emergence, 31 g/ha).
Regarding `CC#CC(Oc1c(F)cc(F)c(F)c1Nc1nc(N)nc(C(C)(C)F)n1)C1CC1` (stereo not drawn) [Example 119], the herbicidal activity in the assay with Amaranthus retroflexus (pre-emergence, 62,5 g/ha) is reported as 85%; with Lolium multiflorum it was 70%; in the assay with Setaria faberi (pre-emergence, 62,5 g/ha), 85%.
Take `COc1c(Br)cc(F)c(F)c1Nc1nc(N)nc(C(C)F)n1` (stereo not drawn) [Example 120]: the herbicidal activity in the assay with Amaranthus retroflexus (pre-emergence, 62,5 g/ha) is reported as 100%; in the assay on Echinochloa crus-galli (pre-emergence, 62,5 g/ha), 100%; in the assay on Abutilon theophrasti (pre-emergence, 62,5 g/ha) it was 100%.
With `COc1c(Cl)cc(F)c(F)c1Nc1nc(N)nc(C(C)(C)Cl)n1` [Example 37], the herbicidal activity is listed as 100% in the assay with Amaranthus retroflexus (pre-emergence, 62,5 g/ha); 100% in the assay on Echinochloa crus-galli (pre-emergence, 62,5 g/ha); 98% with Abutilon theophrasti (pre-emergence, 62,5 g/ha).
For the compound `CC#CCOc1c(Cl)cc(Cl)c(F)c1Nc1nc(N)nc(C(C)(C)F)n1` [Example 61], the herbicidal activity was determined as 100% with Amaranthus retroflexus (pre-emergence, 31 g/ha); 100% in the assay with Echinochloa crus-galli (pre-emergence, 31 g/ha); 100% in the assay with Abutilon theophrasti (pre-emergence, 31 g/ha).
On to `CC#CCOc1c(Cl)cc(F)c(F)c1Nc1nc(N)nc(C(C)(C)F)n1` [Example 18], for which the herbicidal activity is recorded as 100% in the assay on Amaranthus retroflexus (pre-emergence, 62,5 g/ha); 100% in the assay on Echinochloa crus-galli (pre-emergence, 62,5 g/ha); 100% in the assay with Abutilon theophrasti (pre-emergence, 62,5 g/ha).
With `COc1c(F)cc(C)c(F)c1Nc1nc(N)nc(C(C)(C)F)n1` [Example 32, N4-(2,5-difluoro-6-methoxy-3-methyl-phenyl)-6-(1-fluoro-1-methyl-ethyl)-1,3,5-triazine-2,4-diamine], the herbicidal activity in the assay with Amaranthus retroflexus (pre-emergence, 62,5 g/ha) came out at 100%; in the assay on Echinochloa crus-galli (pre-emergence, 62,5 g/ha), 100%; in the assay on Abutilon theophrasti (pre-emergence, 62,5 g/ha) it was 100%.
Take `COc1c(Br)cc(F)c(F)c1Nc1nc(N)nc(C2(F)CC2)n1` [Example 55]: the herbicidal activity is on record as 100% in the assay on Amaranthus retroflexus (pre-emergence, 62,5 g/ha); 100% in the assay with Echinochloa crus-galli (pre-emergence, 62,5 g/ha); 100% in the assay on Abutilon theophrasti (pre-emergence, 62,5 g/ha).
On to `CC#CCOc1c(Br)cc(F)c(F)c1Nc1nc(N)nc(C(C)(C)F)n1` [Example 15], for which the herbicidal activity in the assay on Echinochloa crus-galli (pre-emergence, 125 g/ha) came out at 100%; with Alopecurus myosuroides (pre-emergence, 125 g/ha), 100%; in the assay on Setaria faberi (pre-emergence, 125 g/ha) it was 100%.
On to `COc1c(Cl)cc(F)c(F)c1Nc1nc(N)nc(C2(F)CCCC2)n1` [Example 11], for which the herbicidal activity in the assay with Echinochloa crus-galli (pre-emergence, 250 g/ha) was 100%; in the assay on Alopecurus myosuroides (pre-emergence, 250 g/ha) it was 100%; in the assay with Setaria faberi (pre-emergence, 250 g/ha) it was 100%.
For `C=CC(C)(F)c1nc(N)nc(Nc2c(F)c(F)c(F)c(Cl)c2OC)n1` (stereo not drawn) [Example 173], the herbicidal activity in the assay with Amaranthus retroflexus (pre-emergence, 62,5 g/ha) stood at 100%; in the assay on Alopecurus myosuroides (pre-emergence, 62,5 g/ha), 100%; in the assay with Setaria faberi (pre-emergence, 62,5 g/ha), 95%.
Take `CC#CCOc1c(Br)cc(F)c(F)c1Nc1nc(N)nc(C2(F)CCCC2)n1` [Example 16]: the herbicidal activity is listed as 100% with Amaranthus retroflexus (pre-emergence, 250 g/ha); 100% in the assay on Echinochloa crus-galli (pre-emergence, 250 g/ha); 100% with Abutilon theophrasti (pre-emergence, 250 g/ha).
